Biological target: T1, MET D1228H (Homo sapiens, UniProt P08581, D1228H)
T1 construct: purchased Thermo Fisher Scientific (Life Technologies) SelectScreen
Test: SelectScreen LanthaScreen
Assay type: binding
Settings: 1 µM
Protocol: The in vitro kinase selectivity of NU5455 was determined using the SelectScreen Broad Assay Panel (Thermo Fisher Scientific) involving activity and binding assays (Supplemental Table 1). […] Class IA PI3Ks were measured using the p85α subunit.
Kinase [ATP] % Assay Kinase [ATP] % Assay Kinase [ATP] % Assay Kinase [ATP] % Assay
DNA-PK Km app 98.3 Z LATS2 n/a 4.7 L KIT D820E n/a 1.3 L GSK3B (GSK3 beta) Km app -2.5 Z
PIK3C3 (hVPS34) Km app 85.9 A PRKCZ (PKC zeta) Km app 4.7 Z GRK1 n/a 1.3 L BMPR2 n/a -2.5 L
PIK3C2B (PI3K-C2 beta) 10 28.9 A FGFR1 Km app 4.7 Z BRSK2 n/a 1.2 L CDC42 BPB (MRCKB) Km app -2.5 Z
SNF1LK2 Km app 26.6 Z MINK1 Km app 4.6 Z NUAK1 (ARK5) Km app 1.2 A AMPK (A2/B2/G2) n/a -2.6 L
HCK Km app 18.0 Z CSF1R (FMS) Km app 4.3 Z CDK9/cyclin K n/a 1.0 L PRKG1 Km app -2.7 Z
NEK2 Km app 17.8 Z CSNK1G3 (CK1 gamma 3) Km app 4.2 Z NUAK2 n/a 1.0 L KIT T670E n/a -2.8 L
ALK Km app 17.3 Z STK32C (YANK3) n/a 4.2 L CDK2/cyclin O n/a 0.9 L ERBB4 (HER4) Km app -2.8 Z
FGFR3 K650M n/a 16.5 L STK22D (TSSK1) Km app 4.2 Z CAMKK2 (CaMKK beta) n/a 0.9 L PLK4 n/a -2.8 L
SIK3 n/a 16.1 L TAOK3 (JIK) n/a 4.2 L FGFR3 Km app 0.9 Z GRK7 Km app -3.0 Z
LYN A Km app 15.2 Z RPS6KA4 (MSK2) Km app 4.2 Z ULK2 n/a 0.9 L MAPKAPK2 Km app -3.1 Z
BMPR1B (ALK6) n/a 14.5 L PTK2B (FAK2) Km app 4.2 Z KIT D816V n/a 0.9 L FGFR4 Km app -3.1 Z
INSRR (IRR) Km app 14.1 Z CLK2 Km app 4.1 Z CAMK1 (CaMK1) 10 0.8 A CASK n/a -3.1 L
PLK2 Km app 14.1 Z STK24 (MST3) Km app 4.1 Z PTK6 (Brk) Km app 0.7 Z GRK5 Km app -3.2 Z
PRKACA (PKA) Km app 14.0 Z CAMK1D (CaMKI delta) Km app 4.1 Z CAMK2B (CaMKII beta) Km app 0.7 Z EGFR (ErbB1) T790M Km app -3.3 Z
EIF2AK2 (PKR) n/a 13.3 L INSR Km app 4.1 Z ACVR1 (ALK2) n/a 0.7 L PAK4 Km app -3.3 Z
PRKX Km app 12.5 Z IRAK1 Km app 4.0 A ABL1 H396P n/a 0.6 L DAPK3 (ZIPK) Km app -3.4 Z
FGR Km app 12.1 Z SRC N1 Km app 3.9 Z MERTK (cMER) A708S n/a 0.6 L RET M918T n/a -3.5 L
CLK1 Km app 11.7 Z SRPK2 Km app 3.9 Z MAPKAPK5 (PRAK) Km app 0.6 Z PRKCQ (PKC theta) Km app -3.7 Z
MARK3 Km app 11.4 Z RPS6KA6 (RSK4) Km app 3.8 Z AKT1 (PKB alpha) Km app 0.5 Z CAMKK1 (CAMKKA) n/a -3.8 L
PDGFRB (PDGFR beta) Km app 11.0 Z GRK6 Km app 3.7 Z NTRK3 (TRKC) Km app 0.4 Z FLT3 D835Y Km app -3.9 Z
PRKCN (PKD3) Km app 10.7 Z PKN1 (PRK1) Km app 3.6 Z ZAP70 Km app 0.3 Z ROCK2 Km app -4.1 Z
STK16 (PKL12) n/a 10.5 L MAP3K8 (COT) 100 3.5 Z CSNK1A1 (CK1 alpha 1) Km app 0.3 Z CHUK (IKK alpha) Km app -4.2 A
FES (FPS) Km app 10.4 Z FLT4 (VEGFR3) Km app 3.5 Z MYLK (MLCK) n/a 0.2 L AXL Km app -4.2 Z
ABL1 Km app 10.4 Z GRK4 Km app 3.5 Z MKNK2 (MNK2) n/a 0.2 L PIM2 Km app -4.3 Z
MUSK Km app 10.3 Z FRK (PTK5) Km app 3.4 Z AMPK (A1/B1/G3) n/a 0.2 L PAK1 Km app -4.4 Z
MAPK1 (ERK2) Km app 10.1 Z FYN A n/a 3.3 L MAP3K2 (MEKK2) n/a 0.1 L BMPR1A (ALK3) n/a -4.4 L
BRAF 100 9.9 Z CDK1/cyclin A2 n/a 3.3 L CDK8/cyclin C n/a 0.1 L STK4 (MST1) Km app -4.4 Z
IGF1R Km app 9.7 Z KIT V559D T670I n/a 3.1 L MARK2 Km app 0.1 Z PRKCH (PKC eta) Km app -4.6 Z
MAPK14 (p38 alpha) Km app 9.7 Z SPHK2 10 3.1 A ICK n/a 0.0 L SGKL (SGK3) Km app -4.6 Z
LCK Km app 9.6 Z FGFR3 G697C n/a 3.1 L FGFR2 Km app 0.0 Z PI4KB (PI4K beta) Km app -4.7 A
MAPK11 (p38 beta) Km app 9.5 Z RIPK2 n/a 3.1 L AKT2 (PKB beta) Km app 0.0 Z PRKCE (PKC epsilon) Km app -4.9 Z
SRC Km app 9.5 Z PAK6 Km app 3.0 Z EPHB2 Km app -0.1 Z PHKG1 Km app -5.0 Z
CHEK1 (CHK1) Km app 9.3 Z LYN B Km app 3.0 Z TGFBR2 n/a -0.1 L PDGFRA D842V Km app -5.0 Z
CAMK2D (CaMKII delta) Km app 9.3 Z DAPK2 n/a 2.9 L TEK (Tie2) Km app -0.1 Z PRKG2 (PKG2) Km app -5.1 Z
PLK1 Km app 9.2 Z EPHA4 Km app 2.9 Z AURKA (Aurora A) Km app -0.1 Z TYRO3 (RSE) Km app -5.1 Z
RET Y791F Km app 9.2 Z PIK3CG (p110 gamma) Km app 2.9 A KIT D816H n/a -0.2 L TAOK2 (TAO1) Km app -5.1 Z
FLT3 Km app 9.1 Z HIPK1 (Myak) Km app 2.8 Z KIT N822K n/a -0.2 L EPHB4 Km app -5.3 Z
MAPK10 (JNK3) 100 9.0 Z ADRBK2 (GRK3) Km app 2.8 Z PRKACG (PRKAC gamma) n/a -0.2 L AURKC (Aurora C) Km app -5.4 Z
CSNK2A2 (CK2 alpha 2) Km app 8.7 Z STK17B (DRAK2) n/a 2.7 L TEK (TIE2) Y1108F n/a -0.3 L JAK1 Km app -5.7 Z […]

T1 sequence (P08581 25-1390 D1228H): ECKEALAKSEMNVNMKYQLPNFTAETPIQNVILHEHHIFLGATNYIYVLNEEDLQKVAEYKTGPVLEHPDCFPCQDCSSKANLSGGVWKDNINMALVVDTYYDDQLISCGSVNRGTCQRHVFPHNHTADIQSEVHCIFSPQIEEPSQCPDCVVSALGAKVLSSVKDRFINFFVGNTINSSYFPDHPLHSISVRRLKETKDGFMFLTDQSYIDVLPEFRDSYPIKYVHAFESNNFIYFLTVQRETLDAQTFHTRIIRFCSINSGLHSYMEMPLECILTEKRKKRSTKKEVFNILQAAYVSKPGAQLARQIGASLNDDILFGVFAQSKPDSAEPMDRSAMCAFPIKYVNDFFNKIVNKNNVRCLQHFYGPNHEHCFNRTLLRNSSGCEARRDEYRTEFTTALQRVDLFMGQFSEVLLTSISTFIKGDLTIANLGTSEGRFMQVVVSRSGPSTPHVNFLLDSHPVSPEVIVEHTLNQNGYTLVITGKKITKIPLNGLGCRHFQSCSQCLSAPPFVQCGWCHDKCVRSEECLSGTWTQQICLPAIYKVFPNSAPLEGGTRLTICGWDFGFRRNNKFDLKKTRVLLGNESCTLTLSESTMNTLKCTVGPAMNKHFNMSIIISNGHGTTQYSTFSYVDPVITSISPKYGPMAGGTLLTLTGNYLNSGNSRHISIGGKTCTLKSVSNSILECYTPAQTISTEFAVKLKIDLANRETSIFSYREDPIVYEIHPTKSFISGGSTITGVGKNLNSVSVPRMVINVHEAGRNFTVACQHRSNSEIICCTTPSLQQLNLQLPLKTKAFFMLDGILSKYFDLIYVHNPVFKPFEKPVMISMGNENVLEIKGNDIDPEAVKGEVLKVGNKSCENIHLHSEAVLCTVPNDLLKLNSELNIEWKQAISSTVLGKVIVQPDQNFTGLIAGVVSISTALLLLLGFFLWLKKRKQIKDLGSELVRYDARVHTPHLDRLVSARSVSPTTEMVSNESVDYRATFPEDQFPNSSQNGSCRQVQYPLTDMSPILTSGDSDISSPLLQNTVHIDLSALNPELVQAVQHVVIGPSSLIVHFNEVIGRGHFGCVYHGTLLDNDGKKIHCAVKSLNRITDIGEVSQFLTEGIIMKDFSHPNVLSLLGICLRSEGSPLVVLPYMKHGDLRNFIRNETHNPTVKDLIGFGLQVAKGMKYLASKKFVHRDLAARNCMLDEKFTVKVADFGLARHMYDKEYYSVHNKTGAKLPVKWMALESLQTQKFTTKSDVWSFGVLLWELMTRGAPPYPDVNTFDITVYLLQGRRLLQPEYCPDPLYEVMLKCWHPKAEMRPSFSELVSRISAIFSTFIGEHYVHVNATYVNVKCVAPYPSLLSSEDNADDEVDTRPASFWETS

CN(C(=O)CN1CCOCC1)c1ccc2sc3c(-c4cccc5c(=O)cc(N6CC7CCC(C6)O7)oc45)cccc3c2c1 [NU5455]
% displacement: -1.5%
